In paper PMC9872612, “Mouse α-Defensins: Structural and Functional Analysis of the 17 Cryptdin Isoforms Identified from a Single Jejunal Crypt” (Infection and Immunity, 2022):
“And” between values parts separate entries of the source, which are not always exact repeats. Equal values may be shown once. Positions of bridges follow the written chain, without caps; N, C: chain ends. No end group written: not given here.

Key:
[1] = dynamic light scattering (DLS) particle size / self-association in solution; type: physicochemical; conditions: DLS number distribution, equilibrated 120 s, room temperature, Malvern Zetasizer, representative
Procedure: For verification, we subjected the four cryptdin peptides at 10 μM to dynamic light scattering (DLS) analysis in phosphate saline buffers at pH 7.4 and pH 3.0. […] However, the particle sizes of Crp1 and Crp11 shifted dramatically at the elevated pH, to ~200 nm and >1,000 nm, respectively, indicative of formation of high-ordered soluble aggregates in solution. These DLS data are in qualitative agreement with the SPR findings.
Of note, Cryp1 and Cryp11 are among the weakest cryptdins against E. coli and S. aureus, whereas Cryp4 and Cryp14 are potently bactericidal. This phenomenon raised an intriguing possibility that the ability of cryptdins to self-associate in solution could perhaps inform their antibacterial activity.
Dynamic light scattering (DLS) is a technique that can be used to measure the hydrodynamic diameter of proteins in solution. The principle of this technique lies in the fact that the apparent size of a protein molecule is inversely related to the speed at which it diffuses in a constant, random Brownian motion; size information can be derived mathematically through deconvolution algorithms once the rate at which the intensity of scattered laser light fluctuates as a function of time is determined by DLS ([93]). […]

[2] = test system: S. aureus ATCC 29213; test: virtual colony count (vCC) bactericidal assay, S. aureus; type: cell-based, Staphylococcus aureus
Procedure: (§1) All cryptdins were subjected to a virtual colony count assay (vCC) we have previously developed ([67]), in which E. coli ATCC 25922 and S. aureus ATCC 29213 are exposed to a 2-fold serial dilution of cryptdin for 2 h in 10 mM sodium phosphate buffer (pH 7.4), before bacterial growth in the presence of Mueller-Hinton broth is monitored spectrophotometrically at 650 nm for a period of 12 h. The dose-dependent killing of E. coli and S. aureus by all 17 cryptdins is shown as bacterial survival curves in Fig. 6. The virtual lethal doses (vLDs) of cryptdins at 50%, 10%, 1% and 0.1% bacterial survival (or the vLD50, vLD90, vLD99, and vLD99.9 values) are tabulated in Table 1. The bactericidal activity of the Crp1 subclass of cryptdins is highly variable despite a high degree of sequence identity, with Crp1, Crp6, Crp11, and Crp16 being the weakest against both strains and Crp3, Crp8 to Crp10, Crp13, Crp14, and Crp17 being the strongest. The vLD50, vLD90, vLD99 and vLD99.9 values for Crp11 to E. coli differ from those for Crp14 by 3.4-, 7.0-, 11.8-, and 12.7-fold, respectively; for comparison, the vLD values for Crp11 to S. aureus are 3.1-, 5.0-, 6.8-, and 8.1-fold versus those for Crp10, respectively. Overall, S. aureus appears more susceptible to cryptdin killing than E. coli.
(§2) Antimicrobial assays against E. coli ATCC 25922 and S. aureus ATCC 29213 were conducted using a published 96-well turbidimetric method called “virtual colony count” ([67]). Briefly, a 2-fold dilution series of cryptdin, ranging from 1 to 256 μg/mL in 10 mM sodium phosphate (pH 7.4), was incubated at 37°C for 2 h with E. coli or S. aureus at 1 × 10^6 CFU/mL (a total volume of 100 μL), followed by the addition of 100 μL of twice-concentrated Mueller-Hinton broth (MHB). In addition to […] controls containing no cryptdin, a negative control termed “input” consisted of a portion of the same cell suspension kept on ice during the initial 2 h of incubation and added to the microplate just before addition of 100 μL of twice-concentrated MHB. Kinetic measurements of bacterial growth at 37°C were taken every 5 min over the next 12 h spectrophotometrically at 650 nm using a Tecan Spark plate reader. Data analysis utilized a Visual Basic script to automate the determination of the time necessary for each growth curve to reach a threshold change in optical density at 650 nm of 0.02 (ΔOD650), as previously described ([67]). Since the threshold times are inversely and linearly dependent on the logarithmic concentration of bacteria ([67]), survival data can be readily inferred from these calibration curves established in the absence of cryptdin. The rate of survival was calculated as the number of CFU of cryptdin-treated cells/number of CFU of control cells.

[3] = test system: same cryptdin peptide immobilized on a CM5 sensor chip; test: surface plasmon resonance self-association of cryptdins; type: binding, mouse; conditions: 15.6-2,000 nM analyte over 400 to 500 RU of the same peptide on CM5 chip, 25°C, 10 mM HEPES, 150 mM NaCl, 3 mM EDTA, surfactant P20, pH 7.4; additional 150 mM NaCl for Crp1 and Crp11; Kd unattainable
Procedure: We examined Crp1, Crp4, Crp11, and Crp14 for their ability to self-associate at 25°C in 10 mM HEPES, 150 mM NaCl, 3 mM EDTA, 0.005% surfactant P20 (pH 7.4) using surface plasmon resonance (SPR) techniques. […] Due to the heterogenetic nature of defensin self-association and the lack of an appropriate mathematic model for data analysis, an accurate measurement of thermodynamic parameters such as Kd was unattainable.
FIG 10 Representative association and dissociation kinetics of cryptdins analyzed by surface plasmon resonance. Cryptdins in a 2-fold dilution series at concentrations ranging from 15.625 to 2000 nM were analyzed on self-immobilized sensor chips with resonance units (RUs) of 404 for Crp1 (A), 541 for Crp4 (B), 458 for Crp11 (C), 488 for Crp14 (D). To suppress nonspecific electrostatic interactions, an additional 150 mM NaCl was added to the running buffer for Crp1 and Crp11.
Surface plasmon resonance (SPR) experiments were performed, as described previously ([80]), on a BIAcore T200 system, at 25°C, in HBS-EP buffer (10 mM HEPES, 150 mM NaCl, 3 mM EDTA, […] surfactant P20 [pH 7.4]), with or without additional 150 mM NaCl. […] Analytes in a 2-fold dilution series at concentrations varying from 15.625 to 2,000 nM were injected into the flow cells at 30 μL/min in the running buffer, and association and dissociation assessed for 5 and 10 min, respectively. […]

[4] = test system: E. coli ATCC 25922; test: virtual colony count (vCC) bactericidal assay, E. coli; type: cell-based, Escherichia coli
Procedure: as §1, §2

[5] = virtual lethal dose killing 90% of input cells, 2 h at 37°C in 10 mM sodium phosphate pH 7.4, three independent assays

Crp1: mouse α-defensin cryptdin isoform 1, chemically synthesized and oxidatively folded, three disulfides (LRDLVCYCRSRGCKGRERMNGTCRKGHLLYTLCCR; disulfide 13-33, 8-23, 6-34; not fully specified; UniProt P11477 59-93, looked up)
particle size in diameter by DLS, pH 3.0 ([1]; 10 μM peptide in phosphate saline buffer pH 3.0, filtered 0.22 μm disc membrane): around 1 nm
particle size in diameter by DLS, pH 7.4 ([1]; 10 μM peptide in phosphate saline buffer pH 7.4, filtered 0.22 μM disc membrane): ~ 200 nm
concentration at which S. aureus was completely killed / growth eliminated ([2]; vCC survival curves, 2-fold dilution series, mean of triplicate experiments): 32 µg/mL
Mean vLD ± SD, S. aureus ATCC 29213, vLD50 ([2]; virtual lethal dose killing 50% of input cells, 2 h at 37°C in 10 mM sodium phosphate pH 7.4, 1 × 10^6 CFU/mL, three independent assays): 3.9 ± 0.6 µg/mL
Mean vLD ± SD, S. aureus ATCC 29213, vLD90 [2, 5]: 6.1 ± 0.5 µg/mL
Mean vLD ± SD, S. aureus ATCC 29213, vLD99 ([2]; virtual lethal dose killing 99% of input cells, 2 h at 37°C in 10 mM sodium phosphate pH 7.4, three independent assays): 9.1 ± 0.3 µg/mL
Mean vLD ± SD, S. aureus ATCC 29213, vLD99.9 ([2]; virtual lethal dose killing 99.9% of input cells, 2 h at 37°C in 10 mM sodium phosphate pH 7.4, three independent assays): 11.9 µg/mL and 11.9 ± 0.5 µg/mL
self-association/dissociation kinetics by SPR [3]: slow association, followed by slow dissociation kinetics
reduction of E. coli survival ([4]; peptide at 256 μg/mL, vCC): 5 orders of magnitude
Mean vLD ± SD, E. coli ATCC 25922, vLD50 ([4]; virtual lethal dose killing 50% of input cells, 2-fold dilutions 1-256 μg/mL, 2 h at 37°C in 10 mM sodium phosphate pH 7.4, 1 × 10^6 CFU/mL, then MHB growth 12 h read at 650 nm, three independent assays): 5.9 ± 0.3 µg/mL
Mean vLD ± SD, E. coli ATCC 25922, vLD90 [4, 5]: 13.4 ± 0.6 µg/mL
Mean vLD ± SD, E. coli ATCC 25922, vLD99 ([4]; virtual lethal dose killing 99% of input cells, 2 h at 37°C in 10 mM sodium phosphate pH 7.4, three independent assays, LOD = limit of detection): 25.4 ± 2.3 µg/mL
Mean vLD ± SD, E. coli ATCC 25922, vLD99.9 ([4]; virtual lethal dose killing 99.9% of input cells, 2 h at 37°C in 10 mM sodium phosphate pH 7.4, three independent assays, LOD = limit of detection): 41.9 ± 4.8 µg/mL
